# Results: patent publication US7989482B2, “Indoline anti-cancer agents” (Joyant Pharmaceuticals, Inc., priority 2008, dated 2011)
# Read-outs that look alike come from different tables or passages of the source.
# Tests used:
# [1] = test system: A2058 cells; assay: Cell viability assay (CELL-TITER-GLO) in A2058 cells; format: cell-based; details: Homo sapiens, A2058 cells, 48 hour treatment, cell viability, read-out: IC50 (μM) A2058
# Description: (§1) Cell viability assays were run using standard protocols known to those of skill in art. Cells were plated in 96 well plates at the density of 3,000-10,000 cells per well. Twenty four hours later, cells were treated with increasing concentration of test compounds (1 nM to 1 μM). After another 48 hour, cell survival was measured using CELL-TITER-GLO® reagent (Promega) following the protocol provided by the manufacture. The IC50 value was determined as the concentration of test compound that kills 50% of the cell population.
# (§2) Cell viability data generated according to the protocol described in Example 97 was generated for representative compounds in A2058 and U937 cells.
# [2] = test system: U937 cells; assay: Cell viability assay (CELL-TITER-GLO) in U937 cells; format: cell-based; details: Homo sapiens, U937 cells, 48 hour treatment, cell viability, read-out: IC50 (μM) U937
# Description: as §1, §2
Structure (SMILES),"IC50 ([1]; A2058, 48 h) [µM]","IC50 ([2]; U-937, 48 h) [µM]",IC50 [1] [µM],IC50 ([2]; U-937) [µM]
CC(C)[C@H](O)C(=O)N[C@H]1Cc2ccc3c(c2)C2(C4=C(C(=O)NCCO)N=C(O4)[C@H](C(C)C)NC1=O)c1ccccc1N[C@H]2O3 (stereo partly drawn) [Example 29],> 1,> 1,,
COC(=O)c1nc2oc1[C@@]13c4cc(Cl)ccc4NC1Oc1ccc(cc13)C[C@H](NC(=O)[C@@H](O)C(C)C)C(=O)N[C@H]2C(C)C (stereo partly drawn) [Example 93],> 1,> 1,,
CC(C)[C@H](O)C(=O)N[C@H]1Cc2ccc3c(c2)C2(C4=C(C(=O)NCC(=O)c5c[nH]c6ccccc56)N=C(O4)[C@H](C(C)C)NC1=O)c1ccccc1N[C@H]2O3 (stereo partly drawn) [Example 34],> 1,> 1,,
CNC(C(=O)N[C@H]1Cc2ccc3c(c2)C2(C4=C(c5nc(C(=O)OC)co5)N=C(O4)[C@H](C(C)C)NC1=O)c1ccccc1N[C@H]2O3)C(C)C (stereo partly drawn) [Example 57],0.313,0.111,,
COC(=O)c1coc(-c2nc3oc2C24c5ccccc5N[C@H]2Oc2ccc(cc24)C[C@H](NC(=O)C2(O)CCCCC2)C(=O)N[C@H]3C(C)C)n1 (stereo partly drawn) [Example 51],0.056,0.04,,
CCC(O)(CC)C(=O)N[C@H]1Cc2ccc3c(c2)C2(C4=C(c5nc(C(=O)OC)c(C)o5)N=C(O4)[C@H](C(C)C)NC1=O)c1ccccc1N[C@H]2O3 (stereo partly drawn) [Example 69],0.17,0.081,,
COc1ccc(-c2cnc(-c3nc4oc3C35c6ccccc6N[C@H]3Oc3ccc(cc35)CC(NC(=O)[C@@H](O)C(C)C)C(=O)N[C@H]4C(C)C)o2)cc1 (stereo partly drawn) [Example 71],0.639,> 1,,
COC(=O)[C@H]1COC(c2nc3oc2C24c5ccccc5N[C@H]2Oc2ccc(cc24)C[C@H](NC(=O)[C@@H](O)C(C)C)C(=O)N[C@H]3C(C)C)=N1 (stereo partly drawn) [Example 45],0.329,0.185,,
CC(C)[C@H](O)C(=O)N[C@H]1Cc2ccc3c(c2)C2(C4=C(c5nc(C(=O)O)co5)N=C(O4)[C@H](C(C)C)NC1=O)c1ccccc1N[C@H]2O3 (stereo partly drawn) [Example 56],,,0.841,0.736
CC(C)[C@H](O)C(=O)N[C@H]1Cc2ccc3c(c2)C2(C4=C(C(=O)NCc5ccccc5)N=C(O4)[C@H](C(C)C)NC1=O)c1ccccc1N[C@H]2O3 (stereo partly drawn) [Example 15],,,> 1,> 1
COC(=O)c1nc2oc1C13c4ccccc4N[C@H]1Oc1ccc(cc13)C[C@H](NC(=O)[C@@H]1CCCN1)C(=O)NC2C(C)C (stereo partly drawn) [Example 35],> 1,> 1,,
COC(=O)c1nc2oc1[C@@]13c4ccccc4NC1Oc1ccc(cc13)CC(N)C(=O)N[C@H]2C(C)C (stereo partly drawn) [Example 3],> 1,> 1,,
CC(C)[C@H](O)C(=O)N[C@H]1Cc2ccc3c(c2)C2(C4=C(C(=O)NCC5CCCCC5)N=C(O4)[C@H](C(C)C)NC1=O)c1ccccc1N[C@H]2O3 (stereo partly drawn) [Example 16],> 1,> 1,,
CC(C)[C@H](O)C(=O)N[C@H]1Cc2ccc3c(c2)C2(C4=C(c5ncco5)N=C(O4)[C@H](C(C)C)NC1=O)c1ccccc1N[C@H]2O3 (stereo partly drawn) [Example 78],0.154,0.052,,
CC(C)[C@H](O)C(=O)N[C@H]1Cc2ccc3c(c2)C2(C4=C(C5=NCCO5)N=C(O4)[C@H](C(C)C)NC1=O)c1ccccc1N[C@H]2O3 (stereo partly drawn) [Example 43],0.533,0.697,,
CC(C)OC(=O)c1coc(-c2nc3oc2C24c5ccccc5N[C@H]2Oc2ccc(cc24)C[C@H](NC(=O)[C@@H](O)C(C)C)C(=O)N[C@H]3C(C)C)n1 (stereo partly drawn) [Example 81],0.006,0.0014,,
CC(C)[C@H](O)C(=O)N[C@H]1Cc2ccc3c(c2)C2(C4=C(C(=O)N5CCc6ccccc65)N=C(O4)[C@H](C(C)C)NC1=O)c1ccccc1N[C@H]2O3 (stereo partly drawn) [Example 26],> 1,> 1,,
[H][C@]1(C(=O)N[C@H]2Cc3ccc4c(c3)C3(C5=C(C(=O)OC)N=C(O5)[C@H](C(C)C)NC2=O)c2ccccc2N[C@H]3O4)CCCO1 (stereo partly drawn) [Example 8],> 1,> 1,,
